Reference: PubChem BioAssay (NCI)
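Growth conditions: 96-well plates. Treatment: test compound, 48 hours, 5 concentrations. Analysis: linear interpolation between bracketing concentrations; unreached endpoints set to highest concentration. GI50 is the concentration that inhibits growth by half. The concentration for full growth arrest is given as TGI.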

Experiments:
Assay in all cases: NCI-60 cell line screen, 48 h
[1] = tested on: SF-539 CNS
[2] = tested on: NCI/ADR-RES ovarian
[3] = tested on: COLO 205 colon
[4] = tested on: NCI-H522 lung
[5] = tested on: HS 578T breast
[6] = tested on: SK-OV-3 ovarian
[7] = tested on: HL-60(TB) leukemia
[8] = tested on: M14 melanoma
[9] = tested on: A549 NSCLC
[10] = tested on: 786-0 renal

In the case of `CN(COC(=O)C(C)(C)C)c1nc(N(C)COC(=O)C(C)(C)C)nc(N(C)COC(=O)C(C)(C)C)n1`, the TGI [1] is reported as > 100 µM, the TGI [2] is reported as > 100 µM and the TGI [3] is reported as 35.5 µM. The TGI [4] was > 100 µM, the TGI [5] was > 100 µM and the TGI [6] was > 100 µM. The TGI [7] was 63.6 µM, the TGI [8] was 47.6 µM and the TGI [9] was > 100 µM. For the same compound, the TGI [10] was > 100 µM.

`O=C(NCCc1nccs1)c1cnc2c(S)cccc2c1` gave a GI50 [1] of 4.17 µM, a TGI [1] of 42.7 µM and a GI50 [2] of 2.97 µM. For the same compound, the TGI [2] was > 100 µM, the GI50 [3] was 1.56 µM and the TGI [3] was 3.75 µM. It also gave a GI50 [5] of 6.28 µM, a TGI [5] of 80.5 µM and a GI50 [6] of 3.56 µM. For the same compound, the TGI [6] was 15 µM, the GI50 [7] was 10.7 µM and the TGI [7] was 70 µM. For the same compound, the GI50 [8] was 3.5 µM, the TGI [8] was 38.6 µM and the GI50 [9] was 3.18 µM. The TGI [9] was 13.3 µM, the GI50 [10] was 5.33 µM and the TGI [10] was 36 µM.

In the case of `COc1cccc(C2=C(c3cn(C)c4c(C)cccc34)C(=O)NC2=O)c1`, the GI50 [1] is reported as > 25 µM, the TGI [1] is reported as > 25 µM and the GI50 [2] is reported as > 21.4 µM. The TGI [2] was > 25 µM, the GI50 [3] was > 25 µM and the TGI [3] was > 25 µM. For the same compound, the GI50 [4] was > 18.2 µM, the TGI [4] was > 25 µM and the GI50 [5] was 5.93 µM. For the same compound, the TGI [5] was > 25 µM, the GI50 [6] was > 25 µM and the TGI [6] was > 25 µM. For the same compound, the GI50 [7] was > 25 µM, the TGI [7] was > 25 µM and the GI50 [8] was > 25 µM. The TGI [8] was > 25 µM, the GI50 [9] was > 23.2 µM and the TGI [9] was > 25 µM. The GI50 [10] was 15.8 µM and the TGI [10] was > 25 µM.

`CCc1n(Cc2ccc3ccccc3c2)cc[n+]1Cc1ccc2ccccc2c1` was tested, and the GI50 [1] was 0.8 µM, the TGI [1] was 2.3 µM and the GI50 [2] was 19.2 µM. It also gave a TGI [2] of 62.4 µM, a GI50 [3] of 0.376 µM and a TGI [3] of 1.73 µM. The GI50 [4] was 0.303 µM, the TGI [4] was 1.44 µM and the GI50 [5] was 1.5 µM. It also gave a TGI [5] of 5.62 µM, a GI50 [6] of 1.46 µM and a TGI [6] of 5.73 µM. It also gave a GI50 [7] of 0.249 µM, a TGI [7] of 1.17 µM and a GI50 [8] of 1.21 µM. For the same compound, the TGI [8] was 2.96 µM, the GI50 [9] was 2.59 µM and the TGI [9] was 13.9 µM. The GI50 [10] was 1.52 µM and the TGI [10] was 3.04 µM.

`CCCCCCCCCCCCNCCCc1ccccc1` gave a GI50 [1] of 1.89 µM, a TGI [1] of 3.32 µM and a GI50 [2] of 1.77 µM. For the same compound, the TGI [2] was 3.5 µM, the GI50 [3] was 1.87 µM and the TGI [3] was 3.43 µM. For the same compound, the GI50 [4] was 1.62 µM, the TGI [4] was 3.03 µM and the GI50 [5] was 1.66 µM. It also gave a TGI [5] of 3.72 µM, a GI50 [6] of 2.37 µM and a TGI [6] of 5.37 µM. The GI50 [7] was 1.89 µM, the TGI [7] was 3.73 µM and the GI50 [8] was 1.76 µM. It also gave a TGI [8] of 3.25 µM, a GI50 [9] of 1.78 µM and a TGI [9] of 3.35 µM. It also gave a GI50 [10] of 1.8 µM and a TGI [10] of 3.33 µM.

For `CC(=O)OC1C(C)OC(Oc2c(-c3ccc(O)cc3)oc3cc(O)cc(O)c3c2=O)C(O)C1OC(C)=O` (stereo not drawn), the GI50 [1] was 29.1 µM, the TGI [1] was > 100 µM and the GI50 [2] was > 100 µM. The TGI [2] was > 100 µM, the GI50 [3] was > 67.3 µM and the TGI [3] was > 100 µM. For the same compound, the GI50 [4] was 18.5 µM, the TGI [4] was 47.4 µM and the GI50 [5] was 24.9 µM. For the same compound, the TGI [5] was 82.4 µM, the GI50 [6] was 56.4 µM and the TGI [6] was > 100 µM. It also gave a GI50 [7] of 23.9 µM, a TGI [7] of 61.3 µM and a GI50 [8] of 33.5 µM. For the same compound, the TGI [8] was > 100 µM, the GI50 [9] was 49.8 µM and the TGI [9] was > 100 µM. For the same compound, the GI50 [10] was 48.2 µM and the TGI [10] was > 100 µM.
